This note sets out measurements from patent US9371336B2, “Compounds for treating spinal muscular atrophy” (PTC Therapeutics Inc., priority 2012, dated 2016).

One assay deals with Smn protein. The assay is described as follows: Smn protein assay (HTRF) in cultured cells (SMA patient fibroblasts GM03813). In kind it is cell-based, human. The settings on record: for Smn protein expression: SMA Type 1 patient fibroblast cells, 48 hour, SMN HTRF assay (FIG. 6); for EC1.5x for Smn protein expression: SMA patient fibroblast cells (GM03813), HTRF, 7-point concentration data, concentration producing 1.5 times Smn protein vs DMSO vehicle control; for EC1.5x for Smn protein expression / maximum fold (Fold) increase of Smn protein: 48 hours; for maximum fold (Fold) increase of Smn protein: SMA patient fibroblast cells, 7-point concentration curve, relative to vehicle control. The essentials:
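SMA patient fibroblasts (GM03813) were treated 48 h at 37° C with a 7-point, 3.16-fold compound series in triplicate, then lysed in RIPA. Smn was read by HTRF (anti-SMN d2/kryptate, 665/620 nm ratio). ΔF versus blank was divided by vehicle ΔF to give fold Smn increase.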

Assay [1] has as its system human SMN1 minigene full length and Δ7 mRNA (SMN1-A). Briefly: Human SMN1 minigene mRNA end-point semi-quantitative RT-PCR splicing assay in cultured cells. In kind it is cell-based. The conditions noted are these: HEK293H cells transfected with SMN1-A minigene, increasing concentrations, 7 hours, agarose gel (FIG. 10). An excerpt: The RT-PCR assay is used to visualize and quantify the levels of the human SMN1 minigene full length and Δ7 mRNA in primary cells and cell lines expressing the human SMN1 minigene construct treated with a test compound.
Using the procedure for the preparation of the SMN2 minigene construct described in Biological Example 1, the SMN1 version of the minigene is generated by replacing the sixth nucleotide of exon 7 (a thymine residue) of the SMN2-A minigene construct to cytosine using site-directed mutagenesis. Thus, similar to the SMN2-A minigene construct, the SMN1 minigene construct has a single adenine residue inserted after nucleic residue 48 of exon 7. The SMN1 minigene construct is referred to as SMN1-A.
HEK293H cells (10,000 cells/well/199 μL) were transfected, using FuGENE-6 reagent, in a 96-well plate with 15 ng of the SMN1-A minigene reporter plasmid per well. Cells were incubated for 24 hours following transfection. Test compounds were serially diluted 3.16-fold in 100% DMSO to generate a 7-point concentration curve. A solution of test compound (1 μL, 200× in DMSO) was added to each test well. 1 μL DMSO was added to each control well. The plate was incubated for 7 hours in a cell culture incubator (37° C., 5% CO2, 100% relative humidity). The cells were then lysed in Cells-To-Ct lysis buffer and the lysates were stored at −80° C.
Two SMN spliced mRNA are generated from the SMN1 minigene. The term “SMN1 minigene FL” refers to the first spliced product containing exon 7, corresponding to full length SMN1 mRNA. The term “SMN1 minigene A7” refers to the second product lacking exon 7.
SMN1 minigene FL and SMN1 minigene Δ7 mRNA are amplified using the primers in Table 11. Primer SMN Forward C (SEQ ID NO. 11) hybridizes to a nucleotide sequence in exon 6 (nucleotide 43 to nucleotide 63), primer SMN Reverse A (SEQ ID NO. 2) hybridizes to a nucleotide sequence in the coding sequence of Firefly luciferase. The combination of these two oligonucleotides detects only SMN1 or SMN2 minigenes (RT-PCR) and will not detect endogenous SMN1 or SMN2 genes. Since the HEK293H cells used in Example 16 were transfected with only the human SMN1 minigene, RT-PCR can visualize and quantify only SMN1 minigene FL and SMN1 minigene Δ7 mRNA.
To synthesize cDNA, 5 μL of lysate, 4 μL of 5× iScript reaction mix, 1 μL of reverse transcriptase, and 10 μL of water are combined and incubated 5 min at 25° C. followed by 30 min at 42° C., followed by 5 min at 85° C. The cDNA solution is stored at −20° C.
To perform endpoint PCR, 5 μL of cDNA, 0.2 μL of 100 μM forward primer, 0.2 μL of 100 μM reverse primer, and 22.5 μL of polymerase super mix are combined in a 96 well semiskirted PCR plate. PCR is carried out at the following temperatures for the indicated time: Step 1: 94° C. (2 min), Step 2: 94° C. […]

For `Cc1ccc2nc(-c3cc4ccc(N5CCN(C)CC5)nc4oc3=O)cn2c1` [Cpd 27, 3-(6-methylimidazo[1,2-a]pyridin-2-yl)-7-(4-methylpiperazin-1-yl)-2H-pyrano[2,3-b]pyridin-2-one], in the assay with Smn protein, the Smn protein expression result is on record as “dose dependent increase in Smn protein expression”; the “EC1.5x for Smn protein expression” value is “** (an EC1.5× between >1 and ≦3 μM is indicated by two stars (**))”; the “maximum fold (Fold) increase of Smn protein” value is “**** (a fold increase between >1.5 and ≦1.65 is indicated by four stars (****))”. Also, in assay [1], the “SMN1 minigene FL mRNA (gel band)” value is “progressively more SMN1 minigene FL mRNA” and the “SMN1 minigene Δ7 mRNA (gel band)” value is given as “less SMN1 minigene Δ7 mRNA”.

Take `CN1CCN(c2ccc3cc(-c4nc5c(Cl)cccc5s4)c(=O)oc3n2)CC1` [Cpd 5, 3-(4-chloro-1,3-benzothiazol-2-yl)-7-(4-methylpiperazin-1-yl)-2H-pyrano[2,3-b]pyridin-2-one]: in the assay on Smn protein, the Smn protein expression entry is “dose dependent increase in Smn protein expression”; the “EC1.5x for Smn protein expression” value was “*** (an EC1.5× between >0.3 μM and ≦1 μM is indicated by three stars (***))”; the “maximum fold (Fold) increase of Smn protein” value was “**** (a fold increase between >1.5 and ≦1.65 is indicated by four stars (****))”. Further, in assay [1], the “SMN1 minigene FL mRNA (gel band)” value is recorded as “progressively more SMN1 minigene FL mRNA” and the “SMN1 minigene Δ7 mRNA (gel band)” value is given as “less SMN1 minigene Δ7 mRNA”.
